Reference: ChEMBL document CHEMBL1201862, “PubChem BioAssay data set” (2004)
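Five compound concentrations were applied to cells in 96-well plates for 48 hours; endpoints were derived by simple linear interpolation of the resulting dose-response curve. The concentration for 50% growth inhibition is given as GI50.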 Calls of active or inactive are those of the source. Rule as the data show it: active = GI50 up to about 1.1 µM and inactive = higher.

What was measured:
Assay in all cases: NCI tumour cell line growth inhibition, 48 h
PC-3 = system: PC-3
TK-10 = system: TK-10
SK-MEL-2 = system: SK-MEL-2
MDA-MB-231 = system: MDA-MB-231
786-0 = system: 786-0
RXF 393 = system: RXF 393
CCRF-CEM = system: CCRF-CEM
KM-20L2 = system: KM-20L2
COLO 205 = system: COLO 205
NCI-H23 = system: NCI-H23
HOP-92 = system: HOP-92
NCI-H460 = system: NCI-H460
HCT-15 = system: HCT-15
BT-549 = system: BT-549
SF-295 = system: SF-295
MDA-N = system: MDA-N
SK-MEL-28 = system: SK-MEL-28
OVCAR-8 = system: OVCAR-8
MDA-MB-435 = system: MDA-MB-435
Hs-578T = system: Hs-578T

Measured: GI50

CC1=NN(C(=O)c2ccccc2O)C(=O)/C1=C/c1ccc(O)cc1
inactive: TK-10 13 µM | SK-MEL-2 2.13 µM | MDA-MB-231 58.9 µM | CCRF-CEM 1.47 µM | KM-20L2 36.5 µM | COLO 205 34.9 µM | SK-MEL-28 52.2 µM
0.485 µM: HCT-15
active: PC-3 0.368 µM | 786-0 0.323 µM | RXF 393 0.0601 µM | NCI-H23 0.568 µM | HOP-92 0.218 µM | NCI-H460 0.255 µM | BT-549 0.279 µM | SF-295 0.379 µM | MDA-N 0.316 µM | OVCAR-8 0.358 µM

CC(=O)Oc1ccc(Nn2c3ccccc3c3ccccc32)c(C)c1
inactive: TK-10 39.3 µM | SK-MEL-2 37 µM | 786-0 20.6 µM | RXF 393 29.5 µM | CCRF-CEM 29.8 µM | KM-20L2 29.4 µM | COLO 205 31.7 µM | NCI-H23 38.2 µM | HOP-92 24.5 µM | NCI-H460 27.7 µM | SF-295 25.8 µM | SK-MEL-28 67.6 µM | OVCAR-8 24.3 µM
24.6 µM: HCT-15

S=c1c2nc[nH]c2ncn1CCSC1=NC=NC2=NC=NC21 (stereo unspecified)
> 100 µM: HCT-15
inactive: MDA-MB-435 53.5 µM | PC-3 > 100 µM | TK-10 > 76.2 µM | SK-MEL-2 > 100 µM | MDA-MB-231 > 100 µM | Hs-578T > 100 µM | 786-0 71 µM | RXF 393 > 100 µM | CCRF-CEM > 82.2 µM | KM-20L2 > 100 µM | COLO 205 > 100 µM | NCI-H23 > 100 µM | HOP-92 > 80 µM | NCI-H460 > 100 µM | BT-549 > 100 µM | SF-295 > 100 µM | MDA-N 61.7 µM | SK-MEL-28 > 100 µM | OVCAR-8 > 100 µM

CCCCCCCCCCCC(=O)C1=C(O)CCC(O)C1=O (stereo unspecified)
inactive: TK-10 18.4 µM | SK-MEL-2 11.9 µM | 786-0 19.4 µM | RXF 393 35.1 µM | CCRF-CEM 8.18 µM | KM-20L2 11.7 µM | COLO 205 15.1 µM | NCI-H23 3.48 µM | HOP-92 17.7 µM | NCI-H460 15.7 µM | SF-295 8.17 µM | SK-MEL-28 16.1 µM | OVCAR-8 10.1 µM
8.89 µM: HCT-15

COC(=O)c1s/c(=N\C(=S)N(C)C)n(-c2ccccc2)c1C(=O)OC
> 100 µM: HCT-15
inactive: TK-10 > 100 µM | SK-MEL-2 > 100 µM | 786-0 > 100 µM | RXF 393 > 100 µM | KM-20L2 > 100 µM | COLO 205 > 100 µM | NCI-H23 > 100 µM | HOP-92 > 100 µM | NCI-H460 > 100 µM | SF-295 > 100 µM | SK-MEL-28 > 100 µM | OVCAR-8 > 100 µM

CC1(O)C=CC(=O)C=C1
16 µM: HCT-15
inactive: TK-10 44.1 µM | SK-MEL-2 24.7 µM | 786-0 20.7 µM | RXF 393 21.6 µM | CCRF-CEM 22.2 µM | KM-20L2 32 µM | COLO 205 34.8 µM | NCI-H23 30.3 µM | HOP-92 > 100 µM | NCI-H460 20.3 µM | SF-295 57.1 µM | SK-MEL-28 18.8 µM | OVCAR-8 25.3 µM

C/C(=N/NC(=O)c1ccccc1S(N)(=O)=O)C(CN1CCCCC1)C(C1=C(O)C2C=CC=CC2OC1=O)c1ccccc1 (stereo unspecified)
inactive: TK-10 > 100 µM | SK-MEL-2 59.2 µM | 786-0 > 100 µM | RXF 393 28.4 µM | CCRF-CEM 21.9 µM | KM-20L2 > 100 µM | COLO 205 18.6 µM | NCI-H23 > 100 µM | HOP-92 14 µM | NCI-H460 77.4 µM | SF-295 57.8 µM | OVCAR-8 > 100 µM
49.9 µM: HCT-15
